Test results as given in article PMC9501633, “Synthesis, Characterisation and Mechanism of Action of Anticancer 3-Fluoroazetidin-2-ones” (Pharmaceuticals, 2022).

Tests used:
[1] = tested on: LOX IMVI; experiment: NCI 60 cell line screen, Melanoma; type: cell-based, human; details: for inhibition at 10 µM / Growth %: one dose 10 µM
[2] = tested on: OVCAR-3; experiment: NCI 60 cell line screen, Ovarian; type: cell-based, human; details: for inhibition at 10 µM / Growth %: one dose 10 µM
[3] = tested on: CCRF-CEM; experiment: NCI 60 cell line screen, Leukaemia; type: cell-based, human; details: for inhibition at 10 µM / Growth %: one dose 10 µM
[4] = tested on: SK-MEL-2; experiment: NCI 60 cell line screen, Melanoma; type: cell-based, human; details: for inhibition at 10 µM / Growth %: one dose 10 µM
[5] = tested on: UACC-257; experiment: NCI 60 cell line screen, Melanoma; type: cell-based, human; details: for inhibition at 10 µM / Growth %: one dose 10 µM
[6] = tested on: SW-620; experiment: NCI 60 cell line screen, Colon; type: cell-based, human; details: for inhibition at 10 µM / Growth %: one dose 10 µM
[7] = tested on: MCF-7 cells; experiment: Annexin V-FITC/PI apoptosis assay (flow cytometry); type: cell-based, human; details: 48 h
Procedure: Among the cell death pathways, apoptosis is very important to maintain cellular homeostasis. However, upon severe and irreparable cellular stress, all cells, including cancer cells, undergo apoptosis. In this work, the Annexin V–FITC/PI double-staining method was used in assessing the development of apoptosis when MCF-7 cells are exposed to compound 33 (0.1 and 0.5 μM for 48 h). MCF-7 cells were first treated with compound 33 for 48 h followed by staining with Annexin V–fluorescein isothiocyanate (FITC)/propidium iodide (PI). Live cells (Annexin V^−/PI^−), early apoptotic cells (Annexin V^+/PI^−), late apoptotic cells (Annexin V+/PI+) and necrotic cells (Annexin V^−/PI^+) can be differentiated by tie technique following flow cytometric analysis (Figure 5). The positive control CA-4 (at 50 nM concentration) induced 34.6% Annexin V-positive apoptotic cells, and the vehicle control used was 0.1% ethanol (v/v).
Apoptotic cell death was monitored by flow cytometry using Annexin V and propidium iodide (PI) as previously described by us. MCF-7 cells were seeded in 6-well plates at a density of 1 × 10^5 cells/mL and treated with either vehicle (0.1% (v/v) EtOH) or β-lactam compound 33 at concentrations 0.1 and 0.5 µM for 48 h. Cells were harvested and prepared for flow cytometric analysis. Cells were washed in 1X binding buffer (20X binding buffer: 0.1 M HEPES, pH 7.4; 1.4 M NaCl; 25 mM CaCl2 diluted in dH2O) and incubated in the dark for 30 min on ice in Annexin V-containing binding buffer [1:100]. Cells were then washed in binding buffer and then re-suspended in PI-containing binding buffer (1:1000). Samples were then analysed with the BD Accuri flow cytometer and Prism software. The resulting cell populations were identified as Annexin V- and PI-negative (Q4, healthy cells), Annexin V-positive and PI-negative (Q3, early apoptosis), Annexin V- and PI-positive (Q2, late apoptosis) and Annexin V-negative and PI-positive (Q1, necrosis). The positive control for induction of cell death was […].
Figure 5 Compound 33 induces apoptosis in MCF-7 breast cancer cells. […] .

[8] = tested on: MCF-7 cells; experiment: Immunofluorescence confocal microscopy of the microtubule network; type: cell-based, human; details: MCF-7, 16 h; 33 0.1, 0.5 and 1.0 μM; paclitaxel 1.0 μM; CA-4 0.01 μM
Procedure: The tubulin-targeting effect of compound 33 on the microtubule network of MCF-7 cells was further evaluated by immunofluorescence studies to identify the cellular effects that are relevant to its mechanism of action by inhibiting the polymerisation of tubulin. […] Treatment of MCF-7 cells with compound 33 (0.1, 0.5 and 1.0 μM) induced cell rounding and distinct abnormalities of the spindle formation as well as a loss of the structured tubulin that impacts the microtubule network structure in a dose-dependent manner.
Confocal microscopy was used to determine the effects of novel compound 33 and standard drugs on the MCF-7 cytoskeleton according to the protocols we previously described. For the immunofluorescence study, MCF-7 cells were seeded at 1 × 10^5 cells/mL using eight chamber glass slides (BD Biosciences). The cells were treated with vehicle control (1% ethanol (v/v)), CA-4 (0.01 μM), paclitaxel (1 µM) and 33 (0.1 µM, 0.5 µM and 1 µM) for 16 h. The cells were gently washed in PBS, fixed with 4% paraformaldehyde in PBS (20 min) and permeabilised in 0.5% Triton X-100. After further washes in PBS (containing 0.1% Tween (PBST)), cells were blocked with 5% bovine serum albumin which was diluted with PBST. Cells were incubated with mouse monoclonal anti-α-tubulin–FITC antibody (clone DM1A) (Sigma) (1:100) at 20 °C for 2 h and then washed in PBST and incubated with Alexa Fluor 488 dye (1:500) for 1 h at 20 °C. Cells were washed in PBST and mounted in Ultra Cruz Mounting Media (Santa Cruz Biotechnology, Santa Cruz, CA, USA) containing 4,6-diamino-2-phenolindol dihydrochloride (DAPI). The images were captured by Leica SP8 confocal microscopy with Leica Application Suite X software. Experiments were performed on three independent occasions and images were collected on the same day using identical parameters.
Figure 8 Compound 33 acts as depolymeriser of the microtubule network of MCF-7 breast cancer cells. Cells were treated with vehicle control ([…]), CA-4 (0.01 μM), paclitaxel (1 μM) or compound 33 (0.1, 0.5 and 1 μM) for 16 h. […]

[9] = tested on: SW-480 cells; experiment: AlamarBlue cell viability assay; type: cell-based
Procedure: Compound # (Treatment Concentration µM) […]
different para-substituent ring B 26-29; 3-fluoro β-lactam compounds containing different meta-substituent ring B 30, 33-35; (B) 3,3-difluoro β-lactam compounds containing different para-substituent ring B 36-39; 3,3-difluoro β-lactam compounds containing different meta-substituent […]
ring B 40, 42-45 in SW-480 cancer cells.
Cell proliferation of MCF-7 cells was determined with an alamarBlue assay (seeding density […]
Compound concentrations of either 10 μM or 1 μM for 72 h were used to treat the cells with control wells containing vehicle ethanol (1%

COc1ccc(C2N(c3cc(OC)c(OC)c(OC)c3)C(=O)C2(F)F)cc1F (centres unmarked) [Compound 43, 3,3-Difluoro-4-(3-fluoro-4-methoxyphenyl)-1-(3,4,5-trimethoxyphenyl)azetidin-2-one]
inhibition at 10 µM ([1]; Homo sapiens): 72.9%
Growth % [1]: 27.06%
inhibition at 10 µM ([2]; Homo sapiens): 88.4%
Growth % [2]: 11.64%
inhibition at 10 µM ([3]; Homo sapiens): 87%
Growth % [3]: 12.96%
inhibition at 10 µM ([4]; Homo sapiens): 15.4%
Growth % [4]: 84.61%
inhibition at 10 µM ([5]; Homo sapiens): 50%
Growth % [5]: 50.01%
inhibition at 10 µM ([6]; Homo sapiens): 78.8%
Growth % [6]: 21.22%

CCOc1ccc(C2N(c3cc(OC)c(OC)c(OC)c3)C(=O)C2(F)F)cc1 (centres unmarked) [Compound 37, 4-(4-Ethoxyphenyl)-3,3-difluoro-1-(3,4,5-trimethoxyphenyl)azetidin-2-one]
inhibition at 10 µM ([1]; Homo sapiens): 72.4%
Growth % [1]: 27.57%
inhibition at 10 µM ([2]; Homo sapiens): 92.8%
Growth % [2]: 7.25%
inhibition at 10 µM ([3]; Homo sapiens): 89.8%
Growth % [3]: 10.2%
inhibition at 10 µM ([4]; Homo sapiens): 8.22%
Growth % [4]: 91.78%
inhibition at 10 µM ([5]; Homo sapiens): 41.3%
Growth % [5]: 58.69%
inhibition at 10 µM ([6]; Homo sapiens): 74.5%
Growth % [6]: 25.47%

COc1ccc(/C=C\c2cc(OC)c(OC)c(OC)c2)cc1O [CA-4, combretastatin A-4, reference compound]
viability at 0.05 µM ([7]; Homo sapiens, MCF7, MCF-7, 50 nM, read-out: Viable cells): 61.8%
Annexin V-positive apoptotic cells ([7]; MCF-7, 50 nM): 34.6%
effect on the microtubule network [8]: depolymerisation and destabilisation
IC50 ([9]; Homo sapiens, SW480 cells): 6.3 ± 0.6 nM

COc1ccc(C2C(F)C(=O)N2c2cc(OC)c(OC)c(OC)c2)cc1F (centres unmarked) [Compound 33, 3-Fluoro-4-(3-fluoro-4-methoxyphenyl)-1-(3,4,5-trimethoxyphenyl)azetidin-2-one]
TGI ([1]; 5-dose, 48 h): >100 µM
GI50 ([1]; Homo sapiens, 5-dose, 48 h): 90.4 nM
inhibition at 10 µM ([1]; Homo sapiens): 76%
Growth % [1]: 23.98%
TGI ([2]; 5-dose, 48 h): 0.492 µM
GI50 ([2]; Homo sapiens, 5-dose, 48 h): 46.5 nM
inhibition at 10 µM ([2]; Homo sapiens): 104%
Growth % [2]: -4.18%
TGI ([3]; 5-dose, 48 h): >100 µM
GI50 ([3]; Homo sapiens, 5-dose, 48 h): 47.1 nM
inhibition at 10 µM ([3]; Homo sapiens): 86.8%
Growth % [3]: 13.16%
TGI ([4]; 5-dose, 48 h): >100 µM
GI50 ([4]; Homo sapiens, 5-dose, 48 h): 303 nM
inhibition at 10 µM ([4]; Homo sapiens): 41.2%
Growth % [4]: 58.83%
viability at 0.1 µM ([7]; Homo sapiens, MCF7, MCF-7, 0.1 μM, read-out: Viable cells): 84.9%
viability at 0.5 µM ([7]; Homo sapiens, MCF7, MCF-7, 0.5 μM, read-out: Viable cells): 48.8%
apoptosis (early + late) ([7]; MCF-7, 0.1 μM): 14.2%
early apoptotic cells ([7]; MCF-7, 0.1 μM): 8.1%
late apoptotic cells ([7]; MCF-7, 0.1 μM): 6.1%
apoptosis (early + late) ([7]; MCF-7, 0.5 μM): 45.9%
early apoptotic cells ([7]; MCF-7, 0.5 μM): 22.1%
late apoptotic cells ([7]; MCF-7, 0.5 μM): 23.8%
TGI ([5]; 5-dose, 48 h): >100 µM
GI50 ([5]; Homo sapiens, 5-dose, 48 h): > 100 µM
inhibition at 10 µM ([5]; Homo sapiens): 61.3%
Growth % [5]: 38.74%
effect on the microtubule network [8]: destabilising microtubules
TGI ([6]; 5-dose, 48 h): >100 µM
GI50 ([6]; Homo sapiens, 5-dose, 48 h): 56.2 nM
inhibition at 10 µM ([6]; Homo sapiens): 71.3%
Growth % [6]: 28.73%
cells remaining ([9]; SW-480, 10 μM, 72 h): 62%
